Patent publication US12655156B2, “Oxadiazolopyrazines and oxadiazolopyridines useful as mitochondrial uncouplers” (Virginia Tech Intellectual Properties, Inc., priority 2018, dated 2026)

Assays:
[1] = tested on: Male C57BL/6J mice on western diet; assay: Diet induced obesity reversal mouse study; type: in vivo; conditions: WD containing 1-112, ~60 mg/kg/day
Excerpt: FIGS. 2A-2C. Diet induced obesity reversal data, for mice given a regular chow diet, a Western diet, or a Western diet plus compound 1-112. FIG. 2A, Body mass versus time; FIG. 2B, fat mass (measured by EchoMRI) versus time; FIG. 2C, food intake (last 14 days) versus time.
Male C57BL/6J mice aged 3 months were assigned to either normal chow diet (Chow, n=5) or western diet (WD, n=10) for 28 days. After 28 days half of the WD group were switched to WD containing compound 1-112 at a concentration resulting in consumption of ˜60 mg/kg/day 1-112 (1-112 60 mpk). Body mass (A), fat mass (measured by EchoMRI (B)), and food intake (C, for the final 14 days) were recorded as indicated.

[2] = tested on: whole cells (NMuLi, C2C12, and L6 cells, isolated cardiomyocytes, human primary fibroblasts); assay: Oxygen consumption rate (OCR) in whole cells, Seahorse XF-24 Flux Analyzer; type: cell-based; conditions: increase in OCR; binned EC50 values
In short: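 NMuLi, C2C12 and L6 cells (3.5×10^4/well), cardiomyocytes (4×10^4/well) and human primary fibroblasts (1.1×10^4/well) adhered 24 h, then equilibrated 30 min at 37° C in unbuffered DMEM with pyruvate and glutamine, pH 7.4. Compounds injected during run; OCR read over 2 min periods. EC50 for OCR increase, binned.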

humans = conditions: patients consuming ~300 mg/d, over several months, without changes in food intake; cited from earlier work

Row | Compound | EC50 [2] [µM] | also measured
1 | Oc1nc2nonc2nc1Nc1ccc(-c2ccc(F)cc2)cc1 [1-112, 6-((4′-fluoro-[1,1′-biphenyl]-4-yl)amino)-[1,2,5]oxadiazolo[3,4-b]pyrazin-5-ol] | ≤ 5 | Body mass ([1]; after 28 days of WD): lost body weight; Fat mass (measured by EchoMRI) ([1]; after 28 days of WD): lost body weight and fat mass; Food intake ([1]; final 14 days): without a significant change in food intake
2 | O=[N+]([O-])c1ccc(O)c([N+](=O)[O-])c1 [DNP, 2,4-dinitrophenol] | – | Average weight loss (humans): 1.5 pounds per week
3 | Oc1nc2nonc2nc1Nc1ccc(-c2cccc(C(F)(F)F)c2)cc1 [1-110, 6-((3′-(trifluoromethyl)-[1,1′-biphenyl]-4-yl)amino)-[1,2,5]oxadiazolo[3,4-b]pyrazin-5-ol] | 5 to 20 | –
4 | CCCCCCCCNc1nc2nonc2nc1O [1-74, 6-(octylamino)-[1,2,5]oxadiazolo[3,4-b]pyrazin-5-ol] | ≤ 5 | –
5 | Oc1nc2nonc2nc1Nc1ccc(-c2ccc(OC(F)(F)F)cc2)cc1 [1-105, 6-((4′-(trifluoromethoxy)-[1,1′-biphenyl]-4-yl)amino)-[1,2,5]oxadiazolo[3,4-b]pyrazin-5-ol] | 5 to 20 | –
